Data set [1] relates to A. baumannii CDC-83 (NDM-1, OXA-23, 69). Description: MIC, broth microdilution. The class given is cell-based, Acinetobacter baumannii. Conditions: agent alone.
The test system of data set [2] is P. aeruginosa CDC-110 (VIM-2). Put plainly: Lethal mouse model of systemic infection. Conditions: Pseudomonas aeruginosa, in Mus musculus, sc, read-out: ED50 of MEM (95% confidence intervals).
In data set [3] the test system is Enterobacterales (154), CDC AR Bank. Put plainly: MIC, broth microdilution. The data set is classed as cell-based. On the technique in general: In broth dilution the organism is exposed to a series of concentrations in liquid medium.
Data set [4] concerns P. aeruginosa CDC-90 (KPC-5). Put plainly: MIC, broth microdilution. The class given is cell-based. To be noted: Pseudomonas aeruginosa, agent alone.
Data set [5] concerns Cefepime/taniborbactam-nonsusceptible Enterobacterales with metallo-carbapenemases (25). Description: MIC, broth microdilution. The data set is classed as cell-based. To be noted: CDC AR Bank.
Data set [6] concerns A. baumannii CDC-303 (OXA-23, 66). Put plainly: Lethal mouse model of systemic infection. To be noted: Acinetobacter baumannii, in Mus musculus, sc, read-out: ED50 of MEM, extrapolated from the probit analysis.
In data set [7] the test system is A. baumannii CDC-35 (OXA-66 and OXA-72 producer). Put plainly: Neutropenic murine thigh infection model. Conditions: MEM 50 mg/kg q3h sc for 24 h.
For data set [8], the system named is Klebsiella pneumoniae ATCC BAA-2344 (KPC-2). Description: MIC, broth microdilution. The class given is cell-based. Conditions: K. pneumoniae ATCC BAA-2344, agent alone.
Data set [9] concerns Acinetobacter baumannii (46). Description: MIC, broth microdilution. The data set is classed as cell-based.
The subject of data set [10] is Bacteroides fragilis KUB2983. Put plainly: MIC, agar dilution, reference strains of anaerobic bacteria. The data set is classed as cell-based. A general note: In agar dilution, organisms are placed on agar that contains the substance at set levels.
Another data set relates to Atopobium rimae KUB3014. The data set is described as above. The data set is classed as cell-based. Conditions: Lancefieldella rimae.
Data set [11] concerns the other seven anaerobic strains. Put plainly: Intrinsic antibacterial activity, MIC agar dilution. The class given is cell-based. Here is the method: MICs were determined by the broth microdilution method and agar dilution method (for anaerobic bacteria only) according to CLSI ([37], [38]). When investigating the effect of HSA on the MICs, CAMHB with 4% HSA (FUJIFILM Wako Pure Chemical Corporation) was used. […] The MBC was defined as the lowest drug concentration at which ≥99.9% of the original inoculum was killed.

Data set [12] relates to Eggerthella lenta ATCC 43055. Put plainly: MIC, agar dilution, reference strains of anaerobic bacteria. The class given is cell-based. To be noted: ATCC43055.
Data set [13] concerns the target class D carbapenemases, OXAs from Acinetobacter spp., and OXA-48. Description: Ki app determination, range over enzymes. To be noted: read-out: Ki app, range; range over OXAs from Acinetobacter spp. and OXA-48.
Data set [14] relates to Peptostreptococcus anaerobius ATCC 27337. Put plainly: MIC, agar dilution, reference strains of anaerobic bacteria. The class given is cell-based. Conditions: ATCC27337.
The target in another data set is SHV-2 (Klebsiella pneumoniae, UniProt P0A9Z8). Description: Ki app determination (Waley's method).
The target in a further data set is IMP-6 (Serratia marcescens, UniProt P52699, S214G). Description: Ki app determination (Waley's method).
Data set [15] has as its system Peptoniphilus asaccharolyticus ATCC 14963. Put plainly: MIC, agar dilution, reference strains of anaerobic bacteria. The data set is classed as cell-based. Conditions: ATCC14963.
For another data set, the target named is NDM-7 (Klebsiella pneumoniae, UniProt C7C422, D130N/M154L). Description: Ki app determination (Waley's method).
The subject of data set [16] is Bulleidia extructa KUB3013. Description: MIC, agar dilution, reference strains of anaerobic bacteria. The data set is classed as cell-based.
The next data set has as its target CTX-M-27 (Escherichia coli, UniProt Q840M4). Put plainly: Ki app determination (Waley's method).
A further data set has as its system Parvimonas micra KUB3000. Description: MIC, agar dilution, reference strains of anaerobic bacteria. The data set is classed as cell-based.
The next data set deals with IMP-1 (Serratia marcescens, UniProt P52699). Put plainly: Ki app determination (Waley's method).
A further data set concerns the target NDM-5 (Klebsiella pneumoniae, UniProt C7C422, M154L/V88L). Description: Ki app determination (Waley's method).
The next data set deals with OXA-65 (Acinetobacter baumannii, UniProt Q58XD3). Put plainly: Ki app determination (Waley's method).
In data set [17] the test system is Fusobacterium nucleatum ATCC 25586. Put plainly: MIC, agar dilution, reference strains of anaerobic bacteria. The class given is cell-based. Conditions: ATCC25586.
A short description of data set [18]: Free concentration of KSP-1007 at the dose effective in the infection models. The class given is in vivo, mouse. To be noted: 30 mg/kg of KSP-1007; data not shown.
In a further data set the target is CTX-Ms and PDC-11. Put plainly: Ki app determination, range over enzymes. To be noted: read-out: Ki app values, range; range over CTX-Ms and PDC-11.
For another data set, the target named is OXA-24 (Acinetobacter baumannii, UniProt Q8RLA6). Description: Ki app determination (Waley's method).
In data set [19] the test system is Clostridioides difficile ATCC 700057. Put plainly: MIC, agar dilution, reference strains of anaerobic bacteria. The class given is cell-based. To be noted: ATCC700057.
A further data set deals with KPC-2 (Klebsiella pneumoniae, UniProt Q9F663). Description: Ki app determination (Waley's method).
The test system of data set [20] is Propionibacterium acnes ATCC 11827. Put plainly: MIC, agar dilution, reference strains of anaerobic bacteria. The data set is classed as cell-based. To be noted: Cutibacterium acnes, ATCC11827.
[21] abbreviates: CLSI breakpoints, marked c: breakpoints for β-lactam alone.
Where [22] appears, read: fixed concentration (μg/mL) in label.

In brackets after ≈: the same amount, converted by molar mass. Like-named read-outs stand apart in the source and are kept apart here. Bounds are passed on as bounds.

For orientation: MIC means the least concentration at which growth counts as inhibited. Compound `CC(C)(O/N=C(\C(=O)N[C@@H]1C(=O)N2C(C(=O)[O-])=C(C[N+]3(CCNC(=O)c4ccc(O)c(O)c4Cl)CCCC3)CS[C@H]12)c1csc(N)n1)C(=O)O` [FDC, cefiderocol] had an MIC in data set [1] of 16 µg/mL (≈ 21.3 µM).

As a reminder, the ED50 is the midpoint of the dose-response relation. Broadly, the MIC50 is the lowest concentration that inhibits either 50% of growth or 50% of the strains tested, depending on the study. As usually defined, the MIC90 is the lowest concentration that inhibits either 90% of growth or 90% of the strains tested, depending on the study. Consider `C[C@@H](O)[C@H]1C(=O)N2C(C(=O)O)=C(S[C@@H]3CN[C@H](C(=O)N(C)C)C3)[C@H](C)[C@H]12` [MEM, meropenem], for which the median effective dose (ED50) in data set [2] was 218 mg/kg; in data set [6] it was 6550 mg/kg. In addition, the “CLSI MIC interpretation I (intermediate)” value turned out to be 9.7% in data set [3] (setting [21]), 0% in data set [5] (setting [21]) and 0% in [9] (setting [21]). Further, the “CLSI MIC interpretation R (resistant)” value in data set [3] (setting [21]) came out at 50%; in data set [5] (setting [21]), 96%; in [9] (setting [21]), 100%. Also, the “CLSI MIC interpretation S (susceptible)” value in data set [3] (setting [21]) came to 40.3%; in [5] (setting [21]), 4%; in data set [9] (setting [21]), 0%. Further, the MIC50 in [3] (setting [22]) was found to be 2 µg/mL (≈ 5.22 µM); in data set [5] (setting [22]) it was 32 µg/mL (≈ 83.4 µM); in data set [9] (setting [22]) it was 32 µg/mL (≈ 83.4 µM). Also, the values for the MIC90 in [3] (setting [22]) and in [5] (setting [22]) were 32 µg/mL (≈ 83.4 µM) and greater than 32 µg/mL, respectively. Besides, the minimal inhibitory concentration (MIC) in data set [4] was 32 µg/mL (≈ 83.4 µM); in data set [8] (Experiment 1), 16 to 32 µg/mL; in data set [8] (Klebsiella pneumoniae, ATCCBAA2344, Experiment 2, read-out: MIC), 16 to 32 µg/mL (≈ 41.7 to 83.4 µM). In data set [7], the “bacterial growth in the thigh compared with the control group” value is “no significant reduction in bacterial growth”.

As for `N[C@@H](C(=O)N1CC(Oc2ccc3c(c2C(=O)O)OB(O)CC3)C1)c1c[nH]cn1` [KSP-1007, 7-({1-[(2R)-2-amino-2-(1H-imidazol-4-yl)acetyl]azetidin-3-yl}oxy)-2-hydroxy-3,4-dihydro-2H-1,2-benzoxaborinine-8-carboxylic acid], the minimal inhibitory concentration (MIC) is 16 µg/mL (≈ 41.4 µM) in data set [10]; 8 µg/mL (≈ 20.7 µM) in the data set on Atopobium rimae KUB3014; greater than 256 µg/mL in data set [11]; greater than 256 µg/mL in data set [12]; greater than 256 µg/mL in data set [14]; 32 µg/mL (≈ 82.9 µM) in [15]. For the same compound, the minimum inhibitory concentration (MIC) in data set [16] is 32 µg/mL (≈ 82.9 µM); in the data set with Parvimonas micra KUB3000, 64 µg/mL (≈ 166 µM); in data set [17], 32 µg/mL (≈ 82.9 µM); in data set [19], greater than 256 µg/mL; in [20], 32 µg/mL (≈ 82.9 µM). Also, the Ki in [13] is 0.621 to 5.78 nM; at SHV-2, 361 ± 127 nM; on IMP-6 it was 19900 nM; on NDM-7, 53 ± 30.2 nM; on CTX-M-27, 0.159 ± 0.0228 nM; at IMP-1, 512 ± 119 nM. In addition, the Ki on NDM-5 was 31.6 ± 12.3 nM; on OXA-65, 5.44 ± 1.21 nM; on CTX-Ms and PDC-11, 0.0664 to 0.79 nM; at OXA-24 it was 1.09 ± 0.387 nM; on KPC-2, 1.46 ± 0.0574 nM. Also, the free concentration result in data set [18] was “exceeded 8 µg/mL”.

The record behind these values is article PMC11620503 (Antimicrobial Agents and Chemotherapy, 2024).
